Assay results published in patent EP0239528A1, “13-Beta-carbamoyloxy-milbemicyne derivatives for fighting harmful animal and plant parasites” (CIBA-GEIGY AG, priority 1986, dated 1987).
Like-named read-outs stand apart in the source and are kept apart here.

Tests used:
[1] = system: L₁-Larven von Lucilia sericata; assay: B-3 action against L1 larvae in larval culture medium; assay type: in vivo; details: 96 h, reduced concentration of 100 ppm, after 4 days, read-out: Wirkung (Mortalitätsrate)
Experimental: B-3. Wirkung gegen L₁-Larven von Lucilia sericata
1 ml einer wässrigen Suspension der zu prüfenden Aktivsubstanz werden so mit 3 ml eines speziellen Larvenzuchtmediums bei ca. 50°C vermischt, dass ein Homogenisat von wahlweise 250 ppm oder […] Wirkstoffgehalt entsteht. In jede Reagenzglas-Probe werden ca. 30 Lucilia-Larven (L₁) eingesetzt. Nach 4 Tagen wird die Mortalitätsrate bestimmt. Die Verbindungen aus den Herstellungsbeispielen zeigen bei 250 ppm eine Wirkung von 100 %, wobei die Verbindungen aus den Herstellungsbeispiele, wie z.B. E8, E6, E2, E14, E22, E28, E26, E30, E32, E34, E36 und E38, diese Wirkung auch noch bei der reduzierten Wirkstoffkonzentration von 100 ppm erzielten.

Meloidogyne incognita = assay: B-8 soil nematicidal action on tomato plants, root-knot index; assay type: in vivo; details: 0,002 % active substance relative to soil volume, after 4 weeks; result in words
Experimental: B-8. Bodennematizide Wirkung gegen Meloidogyne incognita
Eier von Meloidogyne incognita werden in Sand eingemischt. Dieses Gemisch wird dann in 200 ml fassende Tontöpfe eingebracht (5000 Eier pro Topf). Am gleichen Tag wird pro Topf eine 3 Wochen alte Tomatenpflanze gepflanzt und der formulierte Wirkstoffe mittels Druckapplikation in die Töpfe hineingegeben (0,002 % Aktivsubstanz bezogen auf das Bodenvolumen). Die eingetopften Pflanzen werden nun bei einer Temperatur von 26±1°C und einer relativen Luftfeuchtigkeit von 60 % in einem Gewächshaus aufgestellt. Nach Ablauf von 4 Wochen erfolgt eine Evaluierung durch Untersuchung der Pflanzen auf Wurzelgallbildung nach dem sogenannten Wurzelgall-Index ("Knot Index").

Spodoptera littoralis = assay: B-1 insecticidal stomach-poison action on sprayed cotton plants; assay type: in vivo; details: 12,5 ppm active ingredient, after 24 hours, L1 larvae on cotton plants
Experimental: B-1. Insektizide Frassgift-Wirkung bei Spodoptera littoralis
Eingetopfe Baumwollpflanzen im 5-Blatt-Stadium werden mit einer acetonisch/wässrigen Versuchslösung besprüht, die 3, 12,5 oder 50 ppm der zu prüfenden Verbindung enthält.
Nach dem Antrocknen des Belags werden die Pflanzen mit ca. 30 Larven (L₁-Stadium) von Spodoptera littoralis besetzt. Pro Versuchsverbindung und pro Test-Spezies verwendet man zwei Pflanzen. Der Versuch wird bei ca. 24°C und 60 % relativer Luftfeuchtigkeit durchgeführt Auswertungen und Zwischenauswertungen auf moribunde Tiere, Wachstum und Larven und Frasschäden erfolgen nach 24 Stunden, 48 Stunden und 72 Stunden.

[2] = system: Haemonchus concortus und Trichostrongylus colubriformis; assay: B-5 test on nematode-infected sheep, worm egg count in faeces; assay type: in vivo, Schafen; details: single dose 0,5 mg/kg by stomach tube or intraruminal injection
Experimental: B-5. Versuch an mit Nematoden (Haemonchus concortus und Trichostrongylus colubriformis) infizierten Schafen
Der Wirkstoff wird als Suspension formuliert mit einer Magensonde oder durch Injektion in den Pansen eines Schafes gegeben, das mit Haemonchus concortus und Trychostrongylus colubriformis künstlich infiziert worden ist. Pro Dosis werden 1 bis 3 Tiere verwendet. Jedes Schaf wird nur einmal mit einer einzigen Dosis behandelt, und zwar wahlweise mit 1 mg oder 0,5 mg/kg Körpergewicht. Die Evaluierung erfolgt durch Vergleich der Anzahl der vor und nach Behandlung im Kot der Schafe ausgeschiedenen Wurmeier.
Gleichzeitig und gleichartig infizierte aber unbehandelte Schafe dienen als Kontrolle. […] Verbindungen aus den Herstellungsbeispielen, wie. z.B. E4, E8, E14, E18, E30 bis E32, E 34 und E36, bewirkten dies auch noch bei 0,5 mg/kg.

Aedes aegypti = assay: B-7 larvicidal action in water; assay type: in vivo; details: 3,3 ppm, after one day
Experimental: B-7. Larvizidwirkung gegen Aedes aegypti
Auf die Oberfläche von 150 ml Wasser, das sich in einem Behälter befindet, wird soviel einer 0,1 %igen acetonischen Lösung des Wirkstoffes pipettiert, dass Konzentrationen von wahlweise 10 ppm, 3,3 ppm und 1,6 ppm erhalten werden. Nach Verdunsten des Acetons wird der Behälter mit ca. 30-40 3 Tage alten Aedes-Larven beschickt. Nach 1, 2 und 5 Tagen wird die Mortalität geprüft.

Dermanyssus gallinae = assay: B-4 miticidal action, wetting test in glass container; assay type: in vivo; details: 72 h, observed for three days, read-out: Wirkung (Mortalität)
Experimental: B-4. Milbizide Wirkung gegen Dermanyssus gallinae
2 bis 3 ml einer Testlösung (100, 10, 1 und 0,1 ppm Aktivsubstanz) werden in einem nach oben offenen Glasbehälter gegeben und ca. 200 Milben in unterschiedlichen Entwicklungstadien in diesen Behälter eingesetzt. Der Glasbehälter wird mit einem Wattebausch verschlossen und 10 Minuten gleichmässig, bis zur vollständigen Benetzung der Milben geschüttelt. Danach wird der Behälter umgekehrt hingestellt, bis die überschüssige Testlösung von der Watte aufgesogen ist. Der Behälter wird erneut gekehrt und die behandelten Zecken zur Evaluierung der Wirksamkeit der Testsubstanzen drei Tage unter Laborbedingungen beobachtet, wobei die Mortalität als Massstab für Wirksamkeit herangezogen wird.

Aphis craccivora = assay: B-6 contact action on infested pea seedlings; assay type: in vivo; details: for mortality at 25 ppm: Aphis craccivora, 72 h, read-out: Abtötung
From the text: B-6. Kontaktwirkung auf Aphis craccivora
Erbsenkeimlinge, die mit sämtlichen Entwicklungsstadien der Laus infiziert sind, werden mit einer aus einem Emulsionskonzentrat hergestellten Wirkstofflösung besprüht, die wahlweise 50 ppm, 25 ppm oder 12,5 ppm Wirkstoff enthält. Nach 3 Tagen wird auf mehr als 80 % tote bzw. abgefallene Blattläuse ausgewertet. Nur bei dieser Wirkungshöhe wird ein Präparat als wirksam eingestuft.

[3] = system: OP-sensible Tetranychus urticae; assay: B-2 action against plant-damaging acarids on bean plants; assay type: in vivo; details: 1,6 ppm active ingredient, evaluation after seven days
From the text: B-2. Wirkung gegen pflanzenschädigende Akariden OP-sensible Tetranychus urticae
Die Primärblätter von Bohnenpflanzen (Phaseolus vulgaris) werden 16 Stunden vor dem Versuch mit einem durch T. urticae infestierten, aus einer Massenzucht stammenden Blattstück belegt. Die so mit allen Milben-Stadien infestierten Pflanzen werden nach Entfernung des Blattstücks mit einer Versuchslösung bis zur Tropfnässe besprüht, die wahlweise 0,4 ppm oder 1,6 ppm der zu prüfenden Verbindung enthält. Die Temperatur in der Gewächshauskabine beträgt ca. 25°C.
Nach sieben Tagen wird unter dem Binokular auf Prozentsatz mobiler Stadien (Adulte und Nymphen) und auf vorhandene Eier ausgewertet.

## CCC1OC2(CCC1C)CC1CC(CC=C(C)C(OC(=O)NC)C(C)C=CC=C3COC4C(O)C(C)=CC(C(=O)O1)C34O)O2 (stereo not drawn) [Beispiel E2, 13β-N-Methyl-carbamoyloxy-milbemycin A₄]
[1]
  mortality at 100 ppm: 100%
Meloidogyne incognita
  Wirksamkeit gegen Meloidogyne incognita (Reduktion der Wurzelgallbildung): besonders aktiv

## CC[C@H]1O[C@]2(CC[C@@H]1C)C[C@@H]1C[C@@H](C/C=C(\C)[C@H](OC(=O)NC(C)(C)C)[C@@H](C)/C=C/C=C3\CO[C@@H]4[C@H](O)C(C)=C[C@@H](C(=O)O1)[C@]34O)O2 [Beispiel E4, 13β-N-tert.-Butyl-carbamoyloxy-milbemycin A₄]
Spodoptera littoralis
  Abtötung: vollständige Abtötung
[2]
  Nematodenbefall (Reduktion der Wurmeier im Kot): komplette Reduktion der Wurmeier im Kot
Aedes aegypti
  Abtötung sämtlicher Larven: vollständige Abtötung

## CCC1OC2(CCC1C)CC1CC(CC=C(C)C(OC(=O)Nc3ccccc3)C(C)C=CC=C3COC4C(O)C(C)=CC(C(=O)O1)C34O)O2 (stereo not drawn) [Beispiel E6, 13β-N-Phenyl-carbamoyloxy-milbemycin A₄]
Spodoptera littoralis
  Abtötung: vollständige Abtötung
[1]
  mortality at 100 ppm: 100%

## CCC1OC2(CCC1C)CC1CC(CC=C(C)C(OC(=O)N(C(C)C)C(C)C)C(C)C=CC=C3COC4C(O)C(C)=CC(C(=O)O1)C34O)O2 (stereo not drawn) [Beispiel E8, 13β-N,N-Diisopropyl-carbamoyloxy-milbemycin A₄]
[1]
  mortality at 100 ppm: 100%
Dermanyssus gallinae
  mortality at 10 ppm: 100%
[2]
  Nematodenbefall (Reduktion der Wurmeier im Kot): komplette Reduktion der Wurmeier im Kot
Aphis craccivora; 25 ppm, after 3 days
  mortality at 25 ppm: 100%
Aedes aegypti
  Abtötung sämtlicher Larven: vollständige Abtötung

## CNC(=O)OC1C(C)=CCC2CC(CC3(CCC(C)C(C(C)C)O3)O2)OC(=O)C2C=C(C)C(O)C3OCC(=CC=CC1C)C23O (stereo not drawn) [Beispiel E10, 13β-N-Methylcarbamoyloxy-milbemycin D]
Spodoptera littoralis
  Abtötung: vollständige Abtötung
Dermanyssus gallinae
  mortality at 10 ppm: 100%
Aphis craccivora
  mortality at 25 ppm: 100%
Meloidogyne incognita
  Wirksamkeit gegen Meloidogyne incognita (Reduktion der Wurzelgallbildung): besonders aktiv

## CCC1OC2(CCC1C)CC1CC(CC=C(C)C(OC(=O)NC3CCCCC3)C(C)C=CC=C3COC4C(O)C(C)=CC(C(=O)O1)C34O)O2 (stereo not drawn) [Beispiel E12, 13β-N-Cyclohexylcarbamoyloxy-milbemycin A₄]
Spodoptera littoralis
  Abtötung: vollständige Abtötung
Aphis craccivora; 25 ppm, after 3 days
  Abtötung: 100%

## CCC1OC2(CCC1C)CC1CC(CC=C(C)C(OC(=O)Nc3ccc(Br)cc3)C(C)C=CC=C3COC4C(O)C(C)=CC(C(=O)O1)C34O)O2 (stereo not drawn) [Beispiel E14, 13β-N-(4-Bromphenyl)carbamoyloxy-milbemycin A₄]
Spodoptera littoralis
  Abtötung: vollständige Abtötung
[1]
  mortality at 100 ppm: 100%
[2]
  Nematodenbefall (Reduktion der Wurmeier im Kot): komplette Reduktion der Wurmeier im Kot
Aphis craccivora; 25 ppm, after 3 days
  mortality at 25 ppm: 100%
Aedes aegypti
  Abtötung sämtlicher Larven: vollständige Abtötung

## CC[C@H]1O[C@]2(CC[C@@H]1C)C[C@@H]1C[C@@H](C/C=C(\C)[C@H](OC(=O)N(C)C)[C@@H](C)/C=C/C=C3\CO[C@@H]4[C@H](O)C(C)=C[C@@H](C(=O)O1)[C@]34O)O2 [Beispiel E16, 13β-N,N-Dimethyl-carbamoyloyx-milbemycin A₄]
Spodoptera littoralis
  Abtötung: vollständige Abtötung
Meloidogyne incognita
  Wirksamkeit gegen Meloidogyne incognita (Reduktion der Wurzelgallbildung): besonders aktiv

## CCNC(=O)O[C@H]1/C(C)=C/C[C@@H]2C[C@@H](C[C@]3(CC[C@H](C)[C@@H](CC)O3)O2)OC(=O)[C@@H]2C=C(C)[C@@H](O)[C@H]3OC/C(=C\C=C\[C@@H]1C)[C@]32O [Beispiel E18, 13β-N-Ethyl-carbamoyloxy-milbemycin A₄]
[2]
  Nematodenbefall (Reduktion der Wurmeier im Kot): komplette Reduktion der Wurmeier im Kot
Meloidogyne incognita
  Wirksamkeit gegen Meloidogyne incognita (Reduktion der Wurzelgallbildung): besonders aktiv

## CC[C@H]1O[C@]2(CC[C@@H]1C)C[C@@H]1C[C@@H](C/C=C(\C)[C@H](OC(=O)Nc3ccc([N+](=O)[O-])cc3)[C@@H](C)/C=C/C=C3\CO[C@@H]4[C@H](O)C(C)=C[C@@H](C(=O)O1)[C@]34O)O2 [Beispiel E20, 13β-N-(4-Nitrophenyl)-carbamoyloxy-milbemycin A₄]
[3]
  Abtötung: vollständige Abtötung
Aedes aegypti
  Abtötung sämtlicher Larven: vollständige Abtötung

## CCC1OC2(CCC1C)CC1CC(CC=C(C)C(OC(=O)Nc3ccccc3C(F)(F)F)C(C)C=CC=C3COC4C(O)C(C)=CC(C(=O)O1)C34O)O2 (stereo not drawn) [Beispiel E22, 13β-N-(2-Trifluorphenyl)-carbamoyloxy-milbemycin A₄]
Spodoptera littoralis
  Abtötung: vollständige Abtötung
[3]
  Abtötung: vollständige Abtötung
[1]
  mortality at 100 ppm: 100%
Aphis craccivora; 25 ppm, after 3 days
  mortality at 25 ppm: 100%
Aedes aegypti
  Abtötung sämtlicher Larven: vollständige Abtötung

## CCC1OC2(CCC1C)CC1CC(CC=C(C)C(OC(=O)NC(C)C)C(C)C=CC=C3COC4C(O)C(C)=CC(C(=O)O1)C34O)O2 (stereo not drawn) [Beispiel E26, 13β-Isopropyl-carbamoyloxy-milbemycin A₄]
[1]
  mortality at 100 ppm: 100%
Dermanyssus gallinae
  mortality at 10 ppm: 100%

## CCC1OC2(CCC1C)CC1CC(CC=C(C)C(OC(=O)NCc3ccccc3)C(C)C=CC=C3COC4C(O)C(C)=CC(C(=O)O1)C34O)O2 (stereo not drawn) [Beispiel E28, 13β-N-Benzyl-carbamoyloxy-milbemycin A₄]
[1]
  mortality at 100 ppm: 100%

## CCC1OC2(CCC1C)CC1CC(CC=C(C)C(OC(=O)NC(C)c3ccccc3)C(C)C=CC=C3COC4C(O)C(C)=CC(C(=O)O1)C34O)O2 [Beispiel E30, 13β-N-((S)-1-Phenylethyl)-carbamoyloxy-milbemycin A₄]
[1]
  mortality at 100 ppm: 100%

## CCC1OC2(CCC1C)CC1CC(CC=C(C)C(OC(=O)Nc3ccccc3Br)C(C)C=CC=C3COC4C(O)C(C)=CC(C(=O)O1)C34O)O2 (stereo not drawn) [Beispiel E34, 13β-N-(2-Bromphenyl)-carbamoyloxy-milbemycin A₄]
[1]
  mortality at 100 ppm: 100%
[2]
  Nematodenbefall (Reduktion der Wurmeier im Kot): komplette Reduktion der Wurmeier im Kot

## CCc1ccccc1NC(=O)OC1C(C)=CCC2CC(CC3(CCC(C)C(CC)O3)O2)OC(=O)C2C=C(C)C(O)C3OCC(=CC=CC1C)C23O (stereo not drawn) [Beispiel E36, 13β-N-(2-Ethylphenyl)-carbamoyloxy-milbemycin A₄]
[1]
  mortality at 100 ppm: 100%
[2]
  Nematodenbefall (Reduktion der Wurmeier im Kot): komplette Reduktion der Wurmeier im Kot

## CCC1OC2(CCC1C)CC1CC(CC=C(C)C(OC(=O)Nc3ccccc3[N+](=O)[O-])C(C)C=CC=C3COC4C(O)C(C)=CC(C(=O)O1)C34O)O2 (stereo not shown) [Beispiel E38]
[1]
  mortality at 100 ppm: 100%
